From paper PMC12013143, “Ionic liquid-iontophoresis mediates transdermal delivery of sparingly soluble drugs” (Drug Delivery, 2025)
≈ marks a conversion by molar mass, not a printed value. Where “and” joins values, the source holds several entries; their conditions need not be identical. Equal values may be shown once.

Legend:
[1] = In vitro skin permeation/retention with IL alone, horizontal diffusion cells; assay type: in vitro ADME; details: excised rat skin; for Effect on promoting permeation/retention of indomethacin: 20% IL or 1%SDS (label = vehicle); for Permeation/retention enhancement effect on apremilast: 20% IL (label = IL)
Method: (§1) Anesthetize rats by intraperitoneal injection with a dose of 1.0 g/kg urethane solution. Then remove the back hair using a pet shaver. Carefully remove the muscle tissue from the inner side of the skin with a surgical knife, cut it into small pieces, soak it in physiological saline for 30 min, cover the diffusion cell opening, and secure it with a clip. Intact rat skin was positioned between two cells, with the SC facing the donor compartment. The drugs were precisely measured at a weight of 4.00 mg each and subsequently dissolved in 4 mL of ILs or other control solutions, and added in donor compartment. The 0.01 M PBS (pH 6.8, 4.0 mL) was chosen as receptor medium. Sampling of ILs was conducted at various time points, specifically at 0, 4, 6, 8, 10, and 24 h. Following each sampling, 2.0 mL (all receptor medium was removed at the 10-h time point) of receptor medium was replaced with fresh PBS solution. The transdermal penetration of IS or IL-IS was conducted using an electroosmosis apparatus (Dajia DL-Z, China) to ensure a consistent current intensity of 0–0.5 mA. […] A receiving solution (2.0 mL) was collected at 1, 2, 4, 6, 8, and 10 h. After skin permeation experiments, rat skins were subsequently removed from cells, cut into pieces, and immersed in methanol for 12 h. The samples were then diluted with mobile phase at a ratio of 1:10. Following centrifugation for 10 min at 9000 rpm, the resulting supernatants were analyzed using HPLC, as previously described.
(§2) The drug skin permeation amount of solution system was calculated through concentration and volume of each sampling point: Q=[Cn×Vo+∑i=1n−1Ci×V]/S
(§3) In this experiment, Vo: 4.0 mL; V: 2.0 mL (24 h point: 4 mL); S: 0.74 cm^2.
(§4) The drug skin retention amount was calculated as follows: R=M/S

[2] = General properties of ILs diluted to 20% (w/w) with water: pH, electrical conductivity, viscosity; assay type: physicochemical; details: 20%IL in water
Method: Viscosity was determined using a viscometer (DV2T, Brookfield, America).

HaCaT cells = assay: Cytotoxicity of ILs, CCK-8 assay; assay type: cell-based, human; details: 24 h incubation
Method: The cytotoxicity of ILs to HaCaT cells was assessed using the Cell Counting Kit 8 (CCK-8) assay. The cell suspension (100 µL) was transferred to a 96-well plate at 8 × 10^3 cells/mL. Then, the 96-well plate was placed in a cell incubator. After 24 h, the medium was removed, and the cells were washed with phosphate-buffered saline (PBS, pH 7.4, 0.1 M). Then, ILs at different concentrations was added to each well for stimulation. After incubation for 24 h, CCK-8 solution (10 µL) was added to each well, followed by incubation for 2 h. The absorbance was measured at 450 nm using a microplate reader (SpectraMax iD5, Molecular Devices, America), and the cell viability was calculated.

[3] = In vitro skin permeation/retention with iontophoresis (IS) or IL-IS, horizontal diffusion cells; assay type: in vitro ADME, rat; details: for Effect of current intensity on retention amount / Effect of current intensity on transdermal permeation / Retention in negative current relative to positive current / Permeation in negative current relative to positive current / Increase of transdermal permeation by IL-IS / Increase of transdermal permeation by IL / Permeation applying IL-IS relative to IL alone / Permeation applying IL-IS relative to IS alone: 20% [Cho] [Cin]; for Effect of current intensity on retention amount / Effect of current intensity on transdermal permeation: negative current 0.1–0.3 mA; for Retention in negative current relative to positive current / Permeation in negative current relative to positive current: 0.3 mA; for Permeation in negative current relative to positive current / Increase of transdermal permeation by IL-IS / Increase of transdermal permeation by IL / Increase of transdermal permeation by IS: 10 h cumulative penetration; for Increase of transdermal permeation by IL: no current; for Increase of transdermal permeation by IS: no IL
Method: as §1, §2, §3, §4

physchem = details: Solubilities
rat skin = assay: CLSM of rhodamine B penetration into rat skin in vivo, with or without endocytosis inhibitors; details: for Fluorescence intensity after treatment with endocytosis inhibitors: nystatin, indomethacin, chlorpromazine applied 1 h before
[4] = 20% IL (label = IL), negative current 0.3 mA, 10 h
[5] = aripiprazole in 20% IL (label = IL)
[6] = pH 4.5, aqueous buffer, thermodynamic from solid
[7] = pH 6.8, aqueous buffer, thermodynamic from solid
[8] = pH 9, aqueous buffer, thermodynamic from solid
[9] = water, thermodynamic from solid

Structure (SMILES) | Effect of current intensity on transdermal permeation ([3]; 10 h) | Increase of transdermal permeation by IL-IS ([3]; negative current 0.3 mA) | Increase of transdermal permeation by IL [3] | Increase of transdermal permeation by IS ([3]; negative current 0.3 mA) | solubility (physchem; [6]) [µg/mL] | solubility (physchem; [7]) [µg/mL] | solubility (physchem; [8]) [µg/mL] | solubility (physchem; [9]) [µg/mL] | Cumulative permeation after 24 h ([1]; drug in water) | Skin retention amount after 24 h ([1]; drug in water) [µg/cm^2] | Permeation applying IL-IS relative to IL alone ([3]; negative current 0.3 mA, 10 h) | Electric conductivity [2] [ms/cm] | Viscosity [2] [mPa·s] | Effect of current intensity on retention amount ([3]; 10 h) | also measured
CCCCCCCCCCCCOS(=O)(=O)[O-].[Na+] [1%SDS, sodium dodecyl sulfate] |  |  |  |  |  |  |  |  |  |  |  |  |  |  | Effect on promoting permeation/retention of indomethacin ([1]; 24 h): no significant effect
CC(=O)[O-].C[N+](C)(C)CCO [[Cho] [Ace]] |  |  |  |  |  |  |  |  |  |  |  | 32.12 ± 0.03 | 1.69 ± 0.08 |  | pH [2]: 9.37 and 9.37 ± 0.01; Cytotoxicity of ILs, descending order (from LD 50) (HaCaT cells): [Cho] [Ole] > [Cho] [Cin] > [Cho] [Ger] > [Cho] [Ace] > [Cho] [Tar]; Permeation enhancement effect on aripiprazole when IL-IS applied [3, 4]: did not have significant permeation enhancement effects; Permeation/retention enhancement effect on apremilast ([1]; 24 h): did not have significant permeation/retention enhancement effects; 24 h cumulative permeability of indomethacin relative to water ([1]; indomethacin in 20% IL (label = IL)): 4.8 times
C[N+](C)(C)CCO.O=C([O-])/C=C/c1ccccc1 [[Cho] [Cin]] |  |  |  |  |  |  |  |  |  |  |  | 18.60 ± 0.06 | 1.97 ± 0.04 |  | pH [2]: 8.27 and 8.27 ± 0.01; Increase of 10 h cumulative permeation of aripiprazole with IL-IS compared to IL or IS alone ([3]; 20% IL (label = IL), negative current 0.3 mA): 14 fold; Permeation of aripiprazole after 24 h, in words [1, 5]: did not show a significant difference; Skin retention of aripiprazole after 24 h, in words [1, 5]: surpassed that of other ILs
C[N+](C)(C)CCO.O=C([O-])C(O)C(O)C(=O)O (stereo not drawn) [[Cho] [Tar]] |  |  |  |  |  |  |  |  |  |  |  | 28.74 ± 0.01 | 1.48 ± 0.01 |  | Permeation enhancement effect on aripiprazole when IL-IS applied [3, 4]: did not have significant permeation enhancement effects; Permeation/retention enhancement effect on apremilast ([1]; 24 h): did not have significant permeation/retention enhancement effects; Effect on promoting permeation/retention of indomethacin ([1]; 24 h): no significant effect
CN(Cc1ccc(C(C)(C)C)cc1)Cc1cccc2ccccc12 [butenafine] |  |  |  |  |  |  |  |  |  |  | ~16.5 fold |  |  |  | Permeation applying IL-IS relative to IS alone ([3]; negative current 0.3 mA, 10 h): ~11.0 fold
CCN(CC)c1ccc2c(-c3ccccc3C(=O)O)c3ccc(=[N+](CC)CC)cc-3oc2c1 [rhodamine B] |  |  |  |  |  |  |  |  |  |  |  |  |  |  | Fluorescence intensity after treatment with endocytosis inhibitors (rat skin; IL, IS and IL-IS groups): partially suppressed; Fluorescence intensity after treatment with endocytosis inhibitors (rat skin; control gel group): no substantial alteration; Transmission pathway in skin (overlap with DAPI) (rat skin; rat skin in vivo, 10 h): primarily occurred through accessory organs; CLSM fluorescence intensity and depth in skin, order of treatments (rat skin; rat skin in vivo, 10 h, control gel, IL gel, IS, IL-IS): IL-IS > IS > IL > Control

Now from value to compound, other results behind:

Effect of current intensity on transdermal permeation ([3]; 10 h) | Increase of transdermal permeation by IL-IS ([3]; negative current 0.3 mA) | Increase of transdermal permeation by IL [3] | Increase of transdermal permeation by IS ([3]; negative current 0.3 mA) | solubility (physchem; [6]) [µg/mL] | solubility (physchem; [7]) [µg/mL] | solubility (physchem; [8]) [µg/mL] | solubility (physchem; [9]) [µg/mL] | Cumulative permeation after 24 h ([1]; drug in water) | Skin retention amount after 24 h ([1]; drug in water) [µg/cm^2] | Permeation applying IL-IS relative to IL alone ([3]; negative current 0.3 mA, 10 h) | Structure (SMILES) | Electric conductivity [2] [ms/cm] | Viscosity [2] [mPa·s] | Effect of current intensity on retention amount ([3]; 10 h) | also measured
not significantly enhanced | 16 fold | 31 fold | little effect | 18.3 ± 7.2 (≈ 39.7 µM) | 13.5 ± 0.5 (≈ 29.3 µM) | 6.8 ± 1 (≈ 14.8 µM) | 21.8 ± 3.8 (≈ 47.3 µM) | 8.1 µg/cm^2 | 6.1 |  | CCOc1cc([C@@H](CS(C)(=O)=O)N2C(=O)c3cccc(NC(C)=O)c3C2=O)ccc1OC [apremilast] |  |  | did not result in a significant difference | Retention in negative current relative to positive current ([3]; 10 h): ~3.4 fold; Permeation in negative current relative to positive current [3]: about 3.2 fold; solubility (physchem): 21.8 ± 3.8 µg/mL (≈ 47.3 µM); Transdermal permeation versus [Cho] [Cin] concentration ([1]; IL alone, 24 h): linear correlation; Skin retention amount versus [Cho] [Cin] concentration ([1]; [Cho] [Cin] 0–20%, IL alone): no significant change
positive linear correlation | 14 fold | little effect | little effect | 152 ± 16.3 (≈ 338 µM) | 8.5 ± 3.2 (≈ 19 µM) | 0.79 ± 0.5 (≈ 1.76 µM) | 0.94 ± 0.15 (≈ 2.1 µM) | negligible | 1.1 | about 14 fold | O=C1CCc2ccc(OCCCCN3CCN(c4cccc(Cl)c4Cl)CC3)cc2N1 [aripiprazole] |  |  | did not result in a significant difference | Retention in negative current relative to positive current ([3]; 10 h): ~3.0 fold; Permeation in negative current relative to positive current [3]: ~5.0 fold; Transdermal penetration versus [Cho] [Cin] concentration under IL-IS ([3]; [Cho] [Cin] 0–20%, negative current 0.3 mA, 10 h): increase with the rise in the concentration; Permeation at different pH values ([3]; pH 4.5, pH 6.8 and pH 9.0, 10 h, IS-related factors): no significant change; Cumulative permeation after 24 h ([1]; drug in 1% SDS): 0.35 µg/cm^2; Skin retention amount after 24 h ([1]; drug in 1% SDS): 2.6 µg/cm^2
not significantly enhanced | little effect | 3.3 fold | 1.6 fold | 2630 ± 648 (≈ 7350 µM) | 21.5 ± 5.7 (≈ 60.1 µM) | 2230 ± 136 (≈ 6230 µM) | 28.5 ± 0.7 (≈ 79.7 µM) | 10.06 µg/cm^2 | 6.1 |  | COc1ccc2c(c1)c(CC(=O)O)c(C)n2C(=O)c1ccc(Cl)cc1 [indomethacin] |  |  | did not result in a significant difference | 
 |  |  |  |  |  |  |  |  |  | ~2.6 fold | COc1cc2nc(N3CCN(C(=O)C4CCCO4)CC3)nc(N)c2cc1OC (stereo not drawn) [terazosin] |  |  |  | Permeation applying IL-IS relative to IS alone ([3]; negative current 0.3 mA, 10 h): ~5.2 fold
